{"source": "paper PMC6733959", "about": "“Synthesis and Evaluations of Novel Apocynin Derivatives as Anti-Glioma Agents” (Frontiers in Pharmacology, 2019)", "key": {"[1]": {"test_system": "NADPH oxidase (NOX)", "assay": "NOX activity determination, U87 cells", "format": "cell-based, human", "conditions": "20 and 50 μM", "method": "The effects of candidate drug on NOX activities were measured using cytochrome c reductase (NADPH) Assay Kit (Sigma-Aldrich, St. Louis, MO, USA). Brieﬂy, after the compound treatment (20, 50 μM), the cells were collected and homogenized in an isotonic buffer ([…]), and centrifuged at 1,000 g to obtain the post-nuclear supernatants. Then 50μl samples were added to 950μl working solution (at 25°C) in a 1ml cuvette and mixed by inversion. Then 20μl cytochrome c oxidase inhibitor solution was added. After reaction with 100 μl NADPH solution, the cytochrome c absorbance was monitored at 550 nm by a spectrophotometer."}, "[2]": {"test_system": "C6 glioma", "assay": "Rat C6 glioma model", "format": "in vivo", "conditions": "C6 glioma-bearing Wistar rats, 25 mg/kg i.p. daily", "method": "C6 glioma model was established as previously reported ([Xu etal., 2016]). The C6 glioma cells in the logarithmic growth phase were collected for implantation. Male Wistar rats (male, 160–180g) were anesthetized with 10% chloral hydrate, and then a hole (1 mm diameter) was drilled in the cranial bone. C6 cells in PBS were injected slowly (3 × 10^6 cells/rat).\nTumors in the brains of the rats were detected by Bruker 7.0 T Micro-MRI using a T2W RARE sequence (TR/TE 3000/15 ms; slice thickness, 1.0 mm; flip angle, 180°; Matrix 256×256; slice gap, 1.0 mm; FOV, 33×33 mm; time, 4.8 min) 7 days after implantation. Tumor volumes (V) were calculated by the following formula: V = (4/3 × π × LHW)/8, where L is the maximum anteroposterior diameter, H and W are the height and width. Then the rats were sacrificed, and the brain tissues were fixed with formalin, embedded in paraffin, sectioned, and subjected to hematoxylin/eosin (HE) staining and immunohistochemical staining for glial fibrillary acidic protein (GFAP) as previously described ([Xu et al., 2016]). The sections from each animal were analyzed by a pathologist. Only rats with maximum intracerebral tumor diameter of >5.0 mm were used.\nAfter the successful implantation, the rats were randomly divided into […] and treated with different drugs by intraperitoneal injection daily: control group (PBS, n = 6), TMZ group (25 mg/kg, n = 6), D14 group (25 mg/kg, n = 6), and D31 group (25 mg/kg, n = 6). The body weights were recorded everyday after administration. Thirteen days after treatment, brain tumors in the rats were detected by Bruker 7.0 T Micro-MRI as described above. Tumor volumes were calculated and recorded as above."}, "[3]": {"test_system": "rat C6 glioma cells", "assay": "Anti-glioma MTT assay, C6 cells", "format": "cell-based", "conditions": "for IC50: Rattus norvegicus, C6 cells", "method": "The anti-glioma effects of these compounds were evaluated by MTT assay in rat C6 glioma cells, human glioma U87 and U251 cells, and BMECs cells. Brieﬂy, cells were seeded at the density of 4,000 cells/well in 96-well plates overnight. For the first screening, the cells were incubated with 10, 20, 100 μM compounds for 48 h. Then cell viabilities were detected by MTT assay as described above. For the second screening, the cells were incubated with 6.25-, 12.5-, 25-, 50-, and 100μM compounds for 48 and 96 h, and then detected by MTT assay. The OD of each well was measured at 490 nm on an ELISA microplate reader. The inhibitory rates and IC50 values were calculated."}, "[4]": {"test_system": "ROS levels in U87 cells", "assay": "Intracellular ROS levels (DCF, flow cytometry), U87 cells", "format": "cell-based, human", "conditions": "20 and 50 μM, 48 h, P < 0.05", "method": "(§1) Intracellular reactive oxygen species (ROS) levels were detected using Reactive Oxygen Species Assay Kit (Jiancheng Bioengineering, Nanjing, China) as per the manufacturer’s instruction. Brieﬂy, after treatment with indicated concentrations of test compound (20, 50 μM) for 48 h, the cells were incubated in 1 ml 2,7-dichloroﬂuorescin diacetate working solution (100 μM) for 30 min at 37°C in the dark, and washed with PBS. Then ﬂuorescence intensities of intracellular DCF were detected using a FACS Calibur ﬂow cytometer (Becton-Dickinson, San Jose, CA, USA). H2O2 treatment group was used as the positive control group."}, "[5]": {"test_system": "NF-κB pathway-related proteins", "assay": "Western blot of NF-κB pathway-related proteins, U87 cells", "format": "cell-based, human", "conditions": "20 and 50 μM, 48 h", "method": "Briefly, after treatment with indicated concentrations of test compound (20, 50 μM) for 48 h, the cells were collected, and total cell lysates and nucleus fractions were extracted. Twenty micrograms of cellular protein were subjected to electrophoresis on 12% SDS-polyacrylamide gels and then transferred to polyvinylidene difluoride membranes. The membranes were first incubated with 5% BSA for 2 h at 37°C and then incubated with the first antibodies overnight at 4°C. After HRP-labeled secondary antibodies (1:1,000-dilution) incubation, protein bands were visualized with the enhanced chemiluminescence (ECL) detection solution. The intensity of bands was quantified using ImageJ 1.43 software (National Institutes of Health, Bethesda, MD, USA)."}, "[6]": {"test_system": "ROS levels in C6 cells", "assay": "Intracellular ROS levels (DCF, flow cytometry), C6 cells", "format": "cell-based, rat", "conditions": "20 and 50 μM, 48 h, P < 0.05", "method": "as §1"}}, "data": [{"smiles": "COc1cc(C(=O)CSCc2ccccc2Cl)ccc1O", "note": "[Compound D31, 2-((2-Chlorobenzyl)thio)-1-(4-Hydroxy-3-Methoxyphenyl)Ethan-1-One]", "values": [{"measurement": "Effect on NOX activities vs control", "setting": "[1]", "result": "no obvious effects"}, {"measurement": "Body weight changes vs control group", "setting": "[2]", "result": "no obvious body weight changes"}, {"measurement": "Tumor volume vs control group", "setting": "[2]; MRI 13 days after treatment", "result": "significantly decreased"}, {"measurement": "Anti-proliferation effect on C6 cells (first screening)", "setting": "[3]; 10, 20, 100 μM, 48 h, compared with D1, P < 0.05", "result": "significant anti-proliferation effects"}, {"measurement": "IC50", "setting": "[3]; 48 h", "result": 35.1, "unit": "µM"}, {"measurement": "IC50", "setting": "[3]; 96 h", "result": 25.4, "unit": "µM"}, {"measurement": "Fluorescence intensity of DCF (ROS generation) vs control", "setting": "[4]", "result": "significant increases"}, {"measurement": "IκBα expression", "setting": "[5]", "result": "obviously decreased"}, {"measurement": "nucleus p-NF-κB p65 expression", "setting": "[5]", "result": "obviously increased"}, {"measurement": "p-IKKα/β expression", "setting": "[5]", "result": "obviously increased"}, {"measurement": "Fluorescence intensity of DCF (ROS generation) vs control", "setting": "[6]", "result": "significant increases"}]}]}
